Experimental data: US12415789B2, “Macrocycles comprising a 4-amido-2,4-pentadienoate moiety for the treatment of hypoxic cancers” (Aarhus Universitet, priority 2019, dated 2025)
Read-outs that look alike come from different tables or passages of the source.

Columns and labels:
HCT116 cells = experiment: Viability assay (CellTiter Blue), HCT116 cells, hypoxia vs normoxia; assay type: cell-based, human
Experimental: (§1) PANC-1 and HaCat cells (PANC-1: RRID:CVCL 0480, taken from a person, HaCat: RRID:CVCL 0038) were cultured in DMEM (Gibco, Cat #: 21969-035) supplemented with FBS (10%, Gibco, Cat #: A31698-02), Penicillin/Streptomycin (1%, Sigma-Aldrich, Cat #: P0781), and Ala-Gln (200 μM, Sigma-Aldrich, Cat #: G8541). BxPC3 cells (RRID:CVCL 0186, taken from a person) were cultured in RPMI 1640 (Gibco, Cat #: 61870-010) supplemented with FBS (10%) and Penicillin/Streptomycin (1%). U2OS (RRID:CVCL 0042) and HCT116 cells (RRID:CVCL 0291, ATCC CCL-247) were cultured in McCoy's 5A (Sigma cat. no. M9309) supplemented with FBS (10%) and Penicillin/Streptomycin (1%). Cells were grown under normoxic conditions in T75 flasks (Biolite, Thermo Scientific, Cat #: 130190) in a humidified atmosphere with 5% CO2 at 37° C. For hypoxic conditions cells were placed in a modular incubator chamber (MIC-101, Billups-Rothenberg) equipped with a 10-cm dish with milliQ water and flushed with CO2/N2 (5%/95%, BioNERT, AGA Cat #: 100466065) for 8 minutes at 20-25 L/minute. Cells were passaged approximately every third day by trypsination (Sigma-Aldrich, Cat #: T4049) followed by transfer of ⅕^th of the cells to a new flask. All cell cultures were handled aseptically in a laminar air flow bench and grown in sterile-filtered (Jetbiofil, Cat #: FPE204500) medium according to ATCC's recommendations. All human cell lines were correctly identified by short tandem repeat analysis and tested free of mycoplasma contamination by MycoAlert (Lonza, Cat #: LT07-218).
(§2) Cells were seeded in black 96-well plates (2000 cells/well, 75 μL/well, ThermoFisher Scientific, Cat #: 137103) in complete medium. Subsequently, the cells were allowed to adhere to the substratum overnight. The next day, compounds were serially diluted in DMSO as 200× solutions. The 200× solutions of compounds were initially diluted in complete medium to 4× solutions containing 2% DMSO. Finally, the compounds were given to cells by the addition of 25 μL/well in triplicates resulting in 1× solutions of compounds in 100 μL/well. The cells were then incubated under either normoxia or hypoxia. 90 minutes before the end of the experiment, all cells were given CellTiter Blue (20 μL/well, Promega, Cat #: G8080) and reincubated under normoxia for the remaining time of the experiment. The viability of the cells was assessed by measuring fluorescence in a plate reader (ex/em: 552±10/598±10, Tecan Spark 10M). Data were normalized to the two lowest concentrations of compound and fitted to a 4-parameter nonlinear regression in Prism 7.04 for Windows, GraphPad Software, La Jolla Calif. USA. IC50 values were extrapolated as the X value at Y=50%. Results can be found in Table 1 and the corresponding dose-response curves seen in FIGS. 12 to 17 and in FIGS. 9 to 10.

PANC-1 cells = experiment: Viability assay (CellTiter Blue), PANC-1 cells, hypoxia vs normoxia; assay type: cell-based, human
Experimental: as §1, §2

BxPC3 cells = experiment: Viability assay (CellTiter Blue), BxPC3 cells, hypoxia vs normoxia; assay type: cell-based, human
Experimental: as §1, §2

tested cell lines = experiment: Viability assays, summary statements across the tested cell lines; assay type: cell-based, human
Experimental: as §1, with “Cells were passaged approximately every third day by trypsination (Sigma-Aldrich, Cat #: T4049) followed by transfer of ⅕^th of the cells to a new flask. All cell cultures were handled aseptically in a laminar air flow bench and grown in sterile-filtered (Jetbiofil, Cat #: FPE204500) medium according to ATCC's recommendations. All human cell lines were correctly identified by short tandem repeat analysis and tested free of mycoplasma contamination by MycoAlert (Lonza, Cat #: LT07-218).” left out
Cells were seeded in black 96-well plates (2000 cells/well, 75 μL/well, ThermoFisher Scientific, Cat #: 137103) in complete medium. […] The viability of the cells was assessed by measuring fluorescence in a plate reader (ex/em: 552±10/598±10, Tecan Spark 10M). […]

[1] = Chemical stability measurements (UPLC-UV); conditions: 20 μM in sodium tetraborate buffer (pH 10) with 30% MeOH, 23° C., up to 9 hours
Experimental: The stability of compounds under neutral or basic conditions were tested by dissolving compounds to 20 μM in PBS (pH 7.4) or sodium tetraborate buffer (pH 10) both mixed with 30% MeOH. The mixtures were shaken vigorously and injected immediately in the HPLC. The reactions were allowed to run at 23° C. for 9 hours and injections were performed once per hour. The concentrations of unreacted compounds were determined by UPLC-UV (Agilent 1260 infinity II) at 262 nm by injecting 5 μL on a PFP column (Poroshell 120 PFP, 3.0×100 mm, 2.7 micron). The compounds were eluted by a 1 mL/minute-gradient of acetonitrile in H2O from 5% to 95% over 8 minutes, then 95% for 1 minute and then 5% acetonitrile in H2O in 30 seconds.

SMILES | IC50 (HCT116 cells; HCT116, hypoxic conditions, read-out: IC50 (μM) [1]) [µM] | Index [3] Selectivity index (IC50 [2]/IC50 [1]) (HCT116 cells; HCT116, normoxic IC50 / hypoxic IC50) | IC50 (HCT116 cells; HCT116, normoxic conditions, read-out: IC50 (μM) [2]) [µM] | IC50 (PANC-1 cells; PANC1, hypoxic conditions, read-out: IC50 (μM) [1]) [µM] | Index [3] Selectivity index (IC50 [2]/IC50 [1]) (PANC-1 cells; PANC1, normoxic IC50 / hypoxic IC50) | IC50 (PANC-1 cells; PANC1, normoxic conditions, read-out: IC50 (μM) [2]) [µM] | IC50 (BxPC3 cells; BxPC3, hypoxic conditions, read-out: IC50 (μM) [1]) [µM] | Index [3] Selectivity index (IC50 [2]/IC50 [1]) (BxPC3 cells; BxPC3, normoxic IC50 / hypoxic IC50) | IC50 (BxPC3 cells; BxPC3, normoxic conditions, read-out: IC50 (μM) [2]) [µM] | selectivity indices (tested cell lines) | chemical stability at elevated pH [1]
C=C1/C=C/C(=O)N(C)CC(=O)N[C@@H](CCCCNC(=O)OC(C)(C)C)COc2cc(CCCCCCCCCCCC)ccc2C(=O)N1 [PH911, tert-butyl (S,E)-(4-(16-dodecyl-7-methyl-11-methylene-5,8,13-trioxo-2,3,4,5,6,7,8,11,12,13-decahydrobenzo[n][1]oxa[4,7,12]-triazacyclopentadecin-3-yl)butyl)carbamate] | 0.73 | 4.2 | 3 | 0.76 | 8.1 | 6.2 | 1.2 | 3.9 | 4.7 | four to eight-fold | –
C=C1/C=C/C(=O)N(C)CC(=O)N[C@@H]([C@H](O)C(N)=O)C(=O)OC([C@H](C)CCCCCC)[C@H](C)C(=O)N1 (some centres unmarked) [rakicidin D] | – | – | – | – | – | – | – | – | – | – | decreased stability
